Laboratory results: patent US6500853B1, “Inhibitors of phospholipase enzymes” (Genetics Institute, LLC, priority 1998, dated 2002)
Values belong to the compound of their own block, whether it stands above or below them.

Tests used:
[1] = molecular target: T1, cPLA2 (Homo sapiens, UniProt P47712); test: Coumarin Assay (cPLA2 inhibition); type: biochemical; details: for inhibition at 50 µM: CONCENTRATION 50 micromolar; for inhibition at 4.8 µM: CONCENTRATION 4.8 micromolar; for inhibition at 10.5 µM: CONCENTRATION 10.5 micromolar
T1 sequence (P47712 1-749): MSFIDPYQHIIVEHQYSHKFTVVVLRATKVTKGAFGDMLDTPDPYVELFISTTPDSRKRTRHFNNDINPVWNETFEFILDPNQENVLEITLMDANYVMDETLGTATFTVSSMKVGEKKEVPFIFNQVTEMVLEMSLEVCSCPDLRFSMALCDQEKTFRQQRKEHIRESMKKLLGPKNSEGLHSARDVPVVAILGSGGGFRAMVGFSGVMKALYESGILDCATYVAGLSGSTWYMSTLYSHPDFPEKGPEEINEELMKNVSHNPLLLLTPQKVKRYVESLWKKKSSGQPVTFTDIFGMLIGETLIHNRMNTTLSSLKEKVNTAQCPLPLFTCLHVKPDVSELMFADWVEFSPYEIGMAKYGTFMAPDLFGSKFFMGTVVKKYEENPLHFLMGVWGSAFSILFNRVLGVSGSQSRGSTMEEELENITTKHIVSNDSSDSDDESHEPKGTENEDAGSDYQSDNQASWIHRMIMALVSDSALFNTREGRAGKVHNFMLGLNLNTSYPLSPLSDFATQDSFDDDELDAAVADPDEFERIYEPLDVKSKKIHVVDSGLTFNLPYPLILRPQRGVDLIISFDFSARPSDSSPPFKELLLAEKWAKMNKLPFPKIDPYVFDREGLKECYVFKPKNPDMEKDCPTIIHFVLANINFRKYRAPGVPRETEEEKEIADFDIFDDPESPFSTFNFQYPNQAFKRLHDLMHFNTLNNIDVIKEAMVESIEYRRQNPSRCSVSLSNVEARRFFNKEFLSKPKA
Outline: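 Percent inhibition at the stated concentration, from the rate of 460 nm emission rise (360 nm excitation) per minute. Reaction started by adding 4 μg enzyme to compound and 60 μM 7-hydroxycoumarinyl 6-heptenoate in Hepes buffer pH 7.5 with 1 mM EDTA.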

[2] = tested on: Rat Carrageenan-Induced Footpad Edema; test: Rat Carrageenan-Induced Footpad Edema Test; type: in vivo, male Sprague Dawley rats; details: Rattus norvegicus, 3 h, footpad volume 3 hours after carrageenan, read-out: PERCENT INHIBITION; for inhibition in vivo at 5 mg/kg: iv, IV; for inhibition in vivo at 2 mg/kg / inhibition in vivo at 10 mg/kg / inhibition in vivo at 3 mg/kg: po, PO
[3] = CONCENTRATION 100 micromolar, read-out: PERCENT INHIBITION @

SMILES: O=C(O)CCc1cn(C(c2ccccc2)c2ccccc2)c2ccc(NC(=O)C3CCCC3)cc12 [Example 84, 3-{1-benzhydryl-5-[(cyclopentylcarbonyl)amino]-1H-indol-3-yl}propanoic acid]
inhibition at 100 µM [1, 3]: 22%
inhibition at 265 µM ([1]; CONCENTRATION 265 micromolar, read-out: PERCENT INHIBITION @): 50%
inhibition at 350 µM ([1]; CONCENTRATION 350 micromolar, read-out: PERCENT INHIBITION @): 50%
inhibition in vivo at 5 mg/kg [2]: 6.15%

SMILES: CS(=O)(=O)NC(=O)CCc1cn(C(c2ccccc2)c2ccccc2)c2ccc(NC(=O)C3CCCC3)cc12 [Example 85, N-(1-benzhydryl-3-{3-[(methylsulfonyl)amino]-3-oxopropyl}-1H-indol-5-yl)cyclopentanecarboxamide]
inhibition at 100 µM [1, 3]: 31%
inhibition at 200 µM ([1]; CONCENTRATION 200 micromolar, read-out: PERCENT INHIBITION @): 50%
inhibition in vivo at 5 mg/kg [2]: 7.13%

SMILES: O=C(O)/C=C/c1cn(C(c2ccccc2)c2ccccc2)c2ccc(NC(=O)C3CCCC3)cc12 [Example 86A, (E)-3-{1-benzhydryl-5-[(cyclopentylcarbonyl)amino]-1H-indol-3-yl}-2-propenoic acid]
inhibition at 60 µM ([1]; CONCENTRATION 60 micromolar, read-out: PERCENT INHIBITION @): 50%
inhibition at 70 µM ([1]; CONCENTRATION 70 micromolar, read-out: PERCENT INHIBITION @): 50%
inhibition at 82 µM ([1]; CONCENTRATION 82 micromolar, read-out: PERCENT INHIBITION @): 50%
inhibition at 118 µM ([1]; CONCENTRATION 118 micromolar, read-out: PERCENT INHIBITION @): 50%
inhibition in vivo at 5 mg/kg [2]: 7.4%

SMILES: O=C(O)/C=C/c1cn(C(c2ccccc2)c2ccccc2)c2ccc([N+](=O)[O-])cc12 [Example 87A, (E)-3-{1-benzhydryl-5-nitro-1H-indol-3-yl}-2-propenoic acid]
inhibition at 50 µM ([1]; read-out: PERCENT INHIBITION @): 33%
inhibition at 95 µM ([1]; CONCENTRATION 95 micromolar, read-out: PERCENT INHIBITION @): 50%
inhibition in vivo at 2 mg/kg [2]: 12.9%
inhibition in vivo at 10 mg/kg [2]: 25.4%

SMILES: CS(=O)(=O)NC(=O)/C=C/c1cn(C(c2ccccc2)c2ccccc2)c2ccc([N+](=O)[O-])cc12 [Example 87B, N-((E)-3-{1-benzhydryl-5-nitro-1H-indol-3-yl}-2-propenoyl)methanesulfonamide]
inhibition at 38 µM ([1]; CONCENTRATION 38 micromolar, read-out: PERCENT INHIBITION @): 50%
inhibition at 42.5 µM ([1]; CONCENTRATION 42.5 micromolar, read-out: PERCENT INHIBITION @): 50%
inhibition in vivo at 3 mg/kg [2]: 17.9%
inhibition in vivo at 10 mg/kg [2]: 31.4%

SMILES: COc1cc(C(=O)O)ccc1Cc1cn(C(c2ccccc2)c2ccccc2)c2ccc(NS(=O)(=O)c3ccc(C(F)(F)F)cc3)cc12 [Example 89, 4-{[1-benzhydryl-5-({[4-(trifluoromethyl)phenyl]sulfonyl}amino)-1H-indol-3-yl]methyl}-3-methoxybenzoic acid]
inhibition at 4.4 µM ([1]; CONCENTRATION 4.4 micromolar, read-out: PERCENT INHIBITION @): 50%
inhibition at 4.8 µM ([1]; read-out: PERCENT INHIBITION @): 50%
inhibition in vivo at 2 mg/kg [2]: 14.3%
inhibition in vivo at 10 mg/kg [2]: 16.4%

SMILES: COc1cc(C(=O)O)ccc1Cc1cn(C(c2ccccc2)c2ccccc2)c2ccc(NS(=O)(=O)c3sc(NC(C)=O)nc3C)cc12 [Example 90, 4-{[5-({[2-(acetylamino)-4-methyl-1,3-thiazol-5-yl]sulfonyl}amino)-1-benzhydryl-1H-indol-3-yl]methyl}-3-methoxybenzoic acid]
inhibition at 10.2 µM ([1]; CONCENTRATION 10.2 micromolar, read-out: PERCENT INHIBITION @): 50%
inhibition at 10.5 µM ([1]; read-out: PERCENT INHIBITION @): 50%
inhibition in vivo at 2 mg/kg [2]: -0.18%
inhibition in vivo at 10 mg/kg [2]: 2.7%

SMILES: COc1cc(C(=O)O)ccc1Cc1cn(C(c2ccccc2)c2ccccc2)c2ccc(NS(=O)(=O)c3ccc(Cl)c([N+](=O)[O-])c3)cc12 [Example 91, 4-[(1-benzhydryl-5-{[(4-chloro-3-nitrophenyl)sulfonyl]amino}-1H-indol-3-yl)methyl]-3-methoxybenzoic acid]
inhibition at 3.8 µM ([1]; CONCENTRATION 3.8 micromolar, read-out: PERCENT INHIBITION @): 50%
inhibition at 4.25 µM ([1]; CONCENTRATION 4.25 micromolar, read-out: PERCENT INHIBITION @): 50%
inhibition in vivo at 2 mg/kg [2]: 13.5%
inhibition in vivo at 10 mg/kg [2]: 14.7%

SMILES: COc1cc(C(=O)O)ccc1Cc1cn(C(c2ccccc2)c2ccccc2)c2ccc(NS(=O)(=O)c3ccc(OC(F)(F)F)cc3)cc12 [Example 93, 4-{[1-benzhydryl-5-({[4-(trifluoromethoxy)phenyl]sulfonyl}amino)-1H-indol-3-yl]methyl}-3-methoxybenzoic acid]
inhibition at 4.2 µM ([1]; CONCENTRATION 4.2 micromolar, read-out: PERCENT INHIBITION @): 50%
inhibition at 4.9 µM ([1]; CONCENTRATION 4.9 micromolar, read-out: PERCENT INHIBITION @): 50%
inhibition in vivo at 2 mg/kg [2]: -3.02%
inhibition in vivo at 10 mg/kg [2]: 9.91%

SMILES: O=C(O)c1cscc1NC(=O)c1cn(C(c2ccccc2)c2ccccc2)c2ccc(NC(=O)C3CCCC3)cc12 [Example 99, 4-[({1-benzhydryl-5-[(cyclopentylcarbonyl)amino]-1H-indol-3-yl}carbonyl)amino]-3-thiophenecarboxylic acid]
inhibition at 30 µM ([1]; CONCENTRATION 30 micromolar, read-out: PERCENT INHIBITION @): 13%
PERCENT INHIBITION @ ([1]; CONCENTRATION 100 micromolar): 50%
inhibition at 100 µM [1, 3]: 38%
inhibition in vivo at 2 mg/kg [2]: 24.5%
inhibition in vivo at 10 mg/kg [2]: 22.8%

The next lines start with results.

inhibition at 7 µM ([1]; CONCENTRATION 7 micromolar, read-out: PERCENT INHIBITION @): 50%
inhibition at 7.5 µM ([1]; CONCENTRATION 7.5 micromolar, read-out: PERCENT INHIBITION @): 50%
SMILES: COc1cc(C(=O)O)ccc1Cc1cn(C(c2ccccc2)c2ccccc2)c2ccc(NS(=O)(=O)c3ccccc3C)cc12 [Example 94, 4-[(1-benzhydryl-5-{[(2-methylphenyl)sulfonyl]amino}-1H-indol-3-yl)methyl]-3-methoxybenzoic acid]
inhibition in vivo at 2 mg/kg [2]: 19%
inhibition in vivo at 3 mg/kg [2]: 3.13%

inhibition at 11.5 µM ([1]; CONCENTRATION 11.5 micromolar, read-out: PERCENT INHIBITION @): 50%
inhibition at 13 µM ([1]; CONCENTRATION 13 micromolar, read-out: PERCENT INHIBITION @): 50%
SMILES: COc1cc(C(=O)O)ccc1Cc1cn(C(c2ccccc2)c2ccccc2)c2ccc(NS(=O)(=O)c3c(C)nn(C)c3Cl)cc12 [Example 95, 4-[(1-benzhydryl-5-{[(5-chloro-1,3-dimethyl-1H-pyrazol-4-yl)sulfonyl]amino}-1H-indol-3-yl)methyl]-3-methoxybenzoic acid]
inhibition in vivo at 2 mg/kg [2]: 14.9%
inhibition in vivo at 10 mg/kg [2]: 23.2%

inhibition at 8 µM ([1]; CONCENTRATION 8 micromolar, read-out: PERCENT INHIBITION @): 50%
inhibition at 10.5 µM ([1]; read-out: PERCENT INHIBITION @): 50%
SMILES: COc1cc(C(=O)O)ccc1Cc1cn(C(c2ccccc2)c2ccccc2)c2ccc(NS(=O)(=O)c3c(C)noc3C)cc12 [Example 96, 4-[(1-benzhydryl-5-{[(3,5-dimethyl-4-isoxazolyl)sulfonyl]amino}-1H-indol-3-yl)methyl]-3-methoxybenzoic acid]
inhibition in vivo at 2 mg/kg [2]: 29.4%
inhibition in vivo at 10 mg/kg [2]: 22%

inhibition at 50 µM ([1]; read-out: PERCENT INHIBITION @): 50%
inhibition at 80 µM ([1]; CONCENTRATION 80 micromolar, read-out: PERCENT INHIBITION @): 50%
inhibition at 94 µM ([1]; CONCENTRATION 94 micromolar, read-out: PERCENT INHIBITION @): 50%
SMILES: COc1cc(C(N)=O)ccc1Cc1cn(C(c2ccccc2)c2ccccc2)c2ccc(NC(=O)OC3CCCC3)cc12 [Example 97, Cyclopentyl-N-{3-[4-(aminocarbonyl)-2-methoxybenzyl]-1-benzhydryl-1H-indol-5-yl}carbamate]
inhibition in vivo at 5 mg/kg [2]: 21.3%

inhibition at 4.8 µM ([1]; read-out: PERCENT INHIBITION @): 50%
inhibition at 6.25 µM ([1]; CONCENTRATION 6.25 micromolar, read-out: PERCENT INHIBITION @): 66%
inhibition at 8.7 µM ([1]; CONCENTRATION 8.7 micromolar, read-out: PERCENT INHIBITION @): 50%
SMILES: COc1cc(-c2nnn[nH]2)ccc1Cc1cn(C(c2ccccc2)c2ccccc2)c2ccc(NC(=O)OC3CCCC3)cc12 [Example 98, cyclopentyl N-{1-benzhydryl-3-[2-methoxy-4-(1H-1,2,3,4-tetraazol-5-yl)benzyl]-1H-indol-5-yl}carbamate]
inhibition in vivo at 5 mg/kg [2]: 18.4%
